Results reported in the kinase profiling compilation of Christmann-Franck et al. (2016).
Values joined by “and” are separate entries in the source; they are usually repeats but may differ in a detail not shown here. Identical values can stand only once.

Experiments:
Assay in all cases: KINOMEscan competition binding
Details in all cases: compound 10.0 µM
[1] = target: AKT2 (human) (UniProt P31751)
[2] = target: CDC42BPG (human) (UniProt Q6DT37)
[3] = target: CDK4 CCND1 (human) (UniProt P11802+P24385)
[4] = target: CDK7 (human) (UniProt P50613)
[5] = target: CLK4 (human) (UniProt Q9HAZ1)
[6] = target: CSNK1G2 (human) (UniProt P78368)
[7] = target: EPHB1 (human) (UniProt P54762)
[8] = target: EPHB3 (human) (UniProt P54753)
[9] = target: FGFR2 (human) (UniProt P21802)
[10] = target: FLT1 (human) (UniProt P17948)
[11] = target: HCK (human) (UniProt P08631)
[12] = target: HIPK2 (human) (UniProt Q9H2X6)
[13] = target: KIT (human) (UniProt P10721)
[14] = system: LRRK2 (human), Q5S007 [G2019S]
[15] = target: MAP2K2 (human) (UniProt P36507)
[16] = target: MERTK (human) (UniProt Q12866)
[17] = target: MET (human) (UniProt P08581)
Chain of MET (human) (P08581 whole entry, looked up): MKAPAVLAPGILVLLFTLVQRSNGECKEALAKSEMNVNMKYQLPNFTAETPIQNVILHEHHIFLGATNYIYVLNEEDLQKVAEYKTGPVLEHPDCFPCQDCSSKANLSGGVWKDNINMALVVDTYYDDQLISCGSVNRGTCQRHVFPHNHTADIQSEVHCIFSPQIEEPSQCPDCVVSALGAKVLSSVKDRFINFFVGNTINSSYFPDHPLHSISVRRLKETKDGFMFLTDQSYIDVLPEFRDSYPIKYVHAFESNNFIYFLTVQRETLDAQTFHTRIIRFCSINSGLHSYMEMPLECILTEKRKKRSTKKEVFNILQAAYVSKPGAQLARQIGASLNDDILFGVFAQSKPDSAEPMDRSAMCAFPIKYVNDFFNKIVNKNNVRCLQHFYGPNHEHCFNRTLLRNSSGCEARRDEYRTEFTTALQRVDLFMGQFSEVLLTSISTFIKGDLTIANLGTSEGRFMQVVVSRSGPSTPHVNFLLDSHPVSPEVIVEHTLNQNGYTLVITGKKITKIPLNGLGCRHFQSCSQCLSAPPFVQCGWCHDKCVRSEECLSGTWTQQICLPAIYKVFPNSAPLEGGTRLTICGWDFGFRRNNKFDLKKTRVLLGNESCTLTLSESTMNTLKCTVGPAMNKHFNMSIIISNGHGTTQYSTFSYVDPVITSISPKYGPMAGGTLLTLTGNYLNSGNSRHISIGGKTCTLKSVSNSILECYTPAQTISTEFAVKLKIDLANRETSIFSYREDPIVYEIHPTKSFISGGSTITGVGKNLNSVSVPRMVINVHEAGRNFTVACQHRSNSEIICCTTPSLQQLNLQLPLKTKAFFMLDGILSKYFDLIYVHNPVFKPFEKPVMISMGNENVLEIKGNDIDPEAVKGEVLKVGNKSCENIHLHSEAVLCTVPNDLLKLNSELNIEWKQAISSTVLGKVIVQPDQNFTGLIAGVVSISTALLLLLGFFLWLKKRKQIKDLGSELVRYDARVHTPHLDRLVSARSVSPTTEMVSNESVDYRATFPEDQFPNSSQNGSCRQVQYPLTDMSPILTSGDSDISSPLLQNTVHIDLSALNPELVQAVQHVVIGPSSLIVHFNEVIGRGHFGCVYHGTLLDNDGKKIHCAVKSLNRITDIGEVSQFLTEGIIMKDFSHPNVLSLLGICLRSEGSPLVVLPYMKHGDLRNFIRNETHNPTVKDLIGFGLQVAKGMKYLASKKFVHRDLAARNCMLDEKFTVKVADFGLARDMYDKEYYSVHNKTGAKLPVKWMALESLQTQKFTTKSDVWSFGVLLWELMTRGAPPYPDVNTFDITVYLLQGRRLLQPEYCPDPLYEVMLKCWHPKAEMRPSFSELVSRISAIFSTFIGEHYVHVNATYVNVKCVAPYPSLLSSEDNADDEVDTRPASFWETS

[18] = target: MKNK2 (human) (UniProt Q9HBH9)
Chain of MKNK2 (human) (Q9HBH9 whole entry, looked up): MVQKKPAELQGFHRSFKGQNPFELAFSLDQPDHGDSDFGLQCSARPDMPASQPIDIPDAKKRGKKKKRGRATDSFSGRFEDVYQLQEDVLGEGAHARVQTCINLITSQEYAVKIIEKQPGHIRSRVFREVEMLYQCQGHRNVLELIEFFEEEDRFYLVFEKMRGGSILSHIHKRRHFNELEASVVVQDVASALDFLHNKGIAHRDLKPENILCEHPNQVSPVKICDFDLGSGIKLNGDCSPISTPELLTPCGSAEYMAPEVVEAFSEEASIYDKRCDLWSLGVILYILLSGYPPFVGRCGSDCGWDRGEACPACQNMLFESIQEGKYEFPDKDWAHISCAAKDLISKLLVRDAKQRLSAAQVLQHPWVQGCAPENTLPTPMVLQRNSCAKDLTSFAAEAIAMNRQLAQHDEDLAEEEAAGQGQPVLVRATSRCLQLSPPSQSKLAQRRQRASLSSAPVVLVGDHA

[19] = target: MYLK (human) (UniProt Q15746)
[20] = target: PIK3CD (human) (UniProt O00329)
[21] = target: PIM1 (human) (UniProt P11309)
Chain of PIM1 (human) (P11309 whole entry, looked up): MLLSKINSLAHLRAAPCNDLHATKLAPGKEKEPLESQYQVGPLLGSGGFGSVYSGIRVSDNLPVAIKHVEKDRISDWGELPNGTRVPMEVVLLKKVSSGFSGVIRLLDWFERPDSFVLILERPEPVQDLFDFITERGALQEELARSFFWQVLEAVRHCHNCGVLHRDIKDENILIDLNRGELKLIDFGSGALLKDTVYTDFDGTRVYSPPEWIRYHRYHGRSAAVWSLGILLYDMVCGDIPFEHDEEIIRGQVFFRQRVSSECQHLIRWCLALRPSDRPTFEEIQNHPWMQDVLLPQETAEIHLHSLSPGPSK

[22] = target: PIM2 (human) (UniProt Q9P1W9)
Chain of PIM2 (human) (Q9P1W9 whole entry, looked up): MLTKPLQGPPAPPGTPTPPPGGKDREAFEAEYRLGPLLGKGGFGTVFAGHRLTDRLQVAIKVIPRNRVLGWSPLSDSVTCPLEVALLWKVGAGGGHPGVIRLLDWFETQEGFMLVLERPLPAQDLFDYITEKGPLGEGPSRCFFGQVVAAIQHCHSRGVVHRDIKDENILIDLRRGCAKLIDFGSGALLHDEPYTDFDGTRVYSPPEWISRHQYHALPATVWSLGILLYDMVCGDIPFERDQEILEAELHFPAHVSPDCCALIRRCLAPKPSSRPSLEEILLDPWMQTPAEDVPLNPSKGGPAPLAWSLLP

[23] = target: PIP5K1C (human) (UniProt O60331)
Chain of PIP5K1C (human) (O60331 whole entry, looked up): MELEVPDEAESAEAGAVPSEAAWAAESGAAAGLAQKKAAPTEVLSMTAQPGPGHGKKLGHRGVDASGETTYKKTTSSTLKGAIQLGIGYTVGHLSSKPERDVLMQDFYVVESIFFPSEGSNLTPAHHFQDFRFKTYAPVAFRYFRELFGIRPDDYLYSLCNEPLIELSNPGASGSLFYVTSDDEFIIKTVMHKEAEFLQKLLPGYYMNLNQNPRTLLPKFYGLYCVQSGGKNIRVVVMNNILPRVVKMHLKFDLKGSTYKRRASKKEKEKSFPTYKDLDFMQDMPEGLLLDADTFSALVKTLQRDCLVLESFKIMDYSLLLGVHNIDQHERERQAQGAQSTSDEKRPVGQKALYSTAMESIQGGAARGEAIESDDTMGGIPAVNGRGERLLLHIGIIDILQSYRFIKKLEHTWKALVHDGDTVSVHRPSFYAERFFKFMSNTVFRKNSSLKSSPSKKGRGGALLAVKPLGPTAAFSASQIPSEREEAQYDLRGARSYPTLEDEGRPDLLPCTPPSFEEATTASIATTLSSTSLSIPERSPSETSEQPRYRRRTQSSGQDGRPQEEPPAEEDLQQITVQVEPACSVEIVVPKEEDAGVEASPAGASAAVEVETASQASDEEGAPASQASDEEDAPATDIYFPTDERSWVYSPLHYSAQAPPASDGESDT

[24] = target: PLK1 (human) (UniProt P53350)
Chain of PLK1 (human) (P53350 whole entry, looked up): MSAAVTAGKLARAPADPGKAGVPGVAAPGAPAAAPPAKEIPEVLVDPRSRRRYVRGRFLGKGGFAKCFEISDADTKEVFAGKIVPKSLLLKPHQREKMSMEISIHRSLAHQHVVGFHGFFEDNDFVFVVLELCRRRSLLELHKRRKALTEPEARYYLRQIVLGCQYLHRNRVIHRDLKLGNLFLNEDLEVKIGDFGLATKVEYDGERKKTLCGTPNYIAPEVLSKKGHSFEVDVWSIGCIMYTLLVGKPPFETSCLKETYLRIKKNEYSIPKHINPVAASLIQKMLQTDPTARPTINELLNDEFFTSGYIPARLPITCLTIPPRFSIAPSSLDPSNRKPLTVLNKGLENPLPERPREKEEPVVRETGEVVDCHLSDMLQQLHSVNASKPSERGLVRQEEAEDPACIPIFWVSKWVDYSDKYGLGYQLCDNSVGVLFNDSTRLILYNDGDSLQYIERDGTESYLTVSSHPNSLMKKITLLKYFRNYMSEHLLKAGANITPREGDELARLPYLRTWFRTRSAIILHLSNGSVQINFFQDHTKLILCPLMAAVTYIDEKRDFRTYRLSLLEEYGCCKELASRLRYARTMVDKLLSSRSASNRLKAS

[25] = target: PRKAA2 (human) (UniProt P54646)
Chain of PRKAA2 (human) (P54646 whole entry, looked up): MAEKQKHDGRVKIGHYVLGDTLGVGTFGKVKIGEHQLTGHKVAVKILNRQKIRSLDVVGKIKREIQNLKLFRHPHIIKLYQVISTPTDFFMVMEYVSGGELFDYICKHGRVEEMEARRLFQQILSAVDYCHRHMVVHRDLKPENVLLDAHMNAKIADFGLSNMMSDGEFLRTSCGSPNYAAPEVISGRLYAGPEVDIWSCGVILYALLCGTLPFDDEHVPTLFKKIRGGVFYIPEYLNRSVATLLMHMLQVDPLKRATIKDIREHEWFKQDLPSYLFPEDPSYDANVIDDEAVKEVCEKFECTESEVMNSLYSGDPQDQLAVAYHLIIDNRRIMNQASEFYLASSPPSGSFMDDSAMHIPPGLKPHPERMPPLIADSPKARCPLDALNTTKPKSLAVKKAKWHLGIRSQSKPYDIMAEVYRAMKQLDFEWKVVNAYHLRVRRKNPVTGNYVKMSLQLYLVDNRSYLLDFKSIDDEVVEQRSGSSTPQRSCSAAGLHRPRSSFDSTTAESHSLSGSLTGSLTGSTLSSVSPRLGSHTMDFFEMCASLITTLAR

[26] = target: PRKD2 (human) (UniProt Q9BZL6)
[27] = target: PRKG2 (human) (UniProt Q13237)
[28] = target: RET (human) (UniProt P07949)
[29] = target: RPS6KA2 KD2 (human) (UniProt Q15349)
[30] = target: SIK1 (human) (UniProt P57059)
[31] = target: SIK3 (human) (UniProt Q9Y2K2)
[32] = target: STK36 (human) (UniProt Q9NRP7)
[33] = target: STK38L (human) (UniProt Q9Y2H1)
[34] = target: SYK (human) (UniProt P43405)
[35] = target: TAOK2 (human) (UniProt Q9UL54)
[36] = target: TBK1 (human) (UniProt Q9UHD2)
[37] = target: TESK1 (human) (UniProt Q15569)
Chain of TESK1 (human) (Q15569 whole entry, looked up): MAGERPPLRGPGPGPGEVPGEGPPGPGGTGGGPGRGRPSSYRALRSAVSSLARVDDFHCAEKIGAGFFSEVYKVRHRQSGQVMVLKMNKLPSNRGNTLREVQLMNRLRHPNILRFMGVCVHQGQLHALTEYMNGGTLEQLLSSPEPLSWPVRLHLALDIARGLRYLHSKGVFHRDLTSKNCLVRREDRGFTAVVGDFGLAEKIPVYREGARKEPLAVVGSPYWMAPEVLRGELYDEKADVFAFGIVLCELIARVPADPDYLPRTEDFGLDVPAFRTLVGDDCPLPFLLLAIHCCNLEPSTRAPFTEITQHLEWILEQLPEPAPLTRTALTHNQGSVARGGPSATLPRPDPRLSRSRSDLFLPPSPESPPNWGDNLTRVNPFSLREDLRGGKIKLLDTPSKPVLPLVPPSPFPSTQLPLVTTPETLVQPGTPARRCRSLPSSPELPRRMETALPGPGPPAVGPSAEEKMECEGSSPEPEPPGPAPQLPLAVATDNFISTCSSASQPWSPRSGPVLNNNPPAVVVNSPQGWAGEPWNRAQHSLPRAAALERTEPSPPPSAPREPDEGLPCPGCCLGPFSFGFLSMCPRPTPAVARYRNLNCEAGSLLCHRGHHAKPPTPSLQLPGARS

[38] = target: TLK1 (human) (UniProt Q9UKI8)
[39] = target: TTK (human) (UniProt P33981)
[40] = target: ZAP70 (human) (UniProt P43403)

Row | SMILES | kinase still bound, per cent of control [1] | kinase still bound, per cent of control [2] | kinase still bound, per cent of control [3] | kinase still bound, per cent of control [4] | kinase still bound, per cent of control [5] | kinase still bound, per cent of control [6] | kinase still bound, per cent of control [7] | kinase still bound, per cent of control [8] | kinase still bound, per cent of control [9] | kinase still bound, per cent of control [10] | kinase still bound, per cent of control [11] | kinase still bound, per cent of control [12] | kinase still bound, per cent of control [13] | kinase still bound, per cent of control [14] | kinase still bound, per cent of control [15] | kinase still bound, per cent of control [16] | kinase still bound, per cent of control [17] | kinase still bound, per cent of control [18] | kinase still bound, per cent of control [19] | kinase still bound, per cent of control [20] | further results
1 | CCN1CCN(Cc2ccc(NC(=O)c3ccc(C)c(/C=C/c4cnc5[nH]ccc5c4OC)c3)cc2C(F)(F)F)CC1 | 48% | 16% | 74% | 41% | 100% | 39% | 0.45% | 4.7% | 3.7% | 2.4% | 0.45% | 41% | 0% | 18% | 58% | 9.2% | 40% | 2.7% | 90% | 78% | kinase still bound, per cent of control [21]: 100%; kinase still bound, per cent of control [22]: 100%; kinase still bound, per cent of control [23]: 84%; kinase still bound, per cent of control [24]: 100%; kinase still bound, per cent of control [25]: 39%; kinase still bound, per cent of control [26]: 50%; kinase still bound, per cent of control [27]: 91%; kinase still bound, per cent of control [28]: 0.1%; kinase still bound, per cent of control [29]: 42%; kinase still bound, per cent of control [30]: 0.9%; kinase still bound, per cent of control [31]: 100%; kinase still bound, per cent of control [32]: 0.3%; kinase still bound, per cent of control [33]: 35%; kinase still bound, per cent of control [34]: 7.2%; kinase still bound, per cent of control [35]: 0.5%; kinase still bound, per cent of control [36]: 55%; kinase still bound, per cent of control [37]: 15%; kinase still bound, per cent of control [38]: 100%; kinase still bound, per cent of control [39]: 6.8%; kinase still bound, per cent of control [40]: 52%
2 | CCc1nc(-c2cccc(C)c2)c(-c2ccnc(NC(=O)c3ccccc3)c2)s1 | 80% | 15% | 84% | 100% | 93% | 19% | 83% | 81% | 71% | 31% | 31% | 100% | 45% | 100% | 90% | 100% | 94% | 94% | 84% | 100% | kinase still bound, per cent of control [21]: 87%; kinase still bound, per cent of control [22]: 82%; kinase still bound, per cent of control [23]: 100%; kinase still bound, per cent of control [24]: 100%; kinase still bound, per cent of control [25]: 100%; kinase still bound, per cent of control [26]: 46%; kinase still bound, per cent of control [27]: 100%; kinase still bound, per cent of control [28]: 66%; kinase still bound, per cent of control [29]: 86%; kinase still bound, per cent of control [30]: 100%; kinase still bound, per cent of control [31]: 94%; kinase still bound, per cent of control [32]: 4.8%; kinase still bound, per cent of control [33]: 96%; kinase still bound, per cent of control [34]: 88%; kinase still bound, per cent of control [35]: 86%; kinase still bound, per cent of control [36]: 100%; kinase still bound, per cent of control [37]: 81%; kinase still bound, per cent of control [38]: 82%; kinase still bound, per cent of control [39]: 70%; kinase still bound, per cent of control [40]: 100%
3 | CNC(=O)Nc1ccc(-c2nc(N3CC4CCC(C3)O4)c3cnn(C4CCC5(CC4)OCCO5)c3n2)cc1 | 100% | 84% | 90% | 88% | 88% | 95% | 90% | 92% | 92% | 92% | 100% | 100% | 91% and 93% | 65% | 100% | 87% | 93% | 87% | 100% | 5.7% | kinase still bound, per cent of control [21]: 100%; kinase still bound, per cent of control [22]: 74%; kinase still bound, per cent of control [23]: 100%; kinase still bound, per cent of control [24]: 77%; kinase still bound, per cent of control [25]: 93%; kinase still bound, per cent of control [26]: 100%; kinase still bound, per cent of control [27]: 88%; kinase still bound, per cent of control [28]: 91%; kinase still bound, per cent of control [29]: 93%; kinase still bound, per cent of control [30]: 86%; kinase still bound, per cent of control [31]: 35%; kinase still bound, per cent of control [32]: 96%; kinase still bound, per cent of control [33]: 100%; kinase still bound, per cent of control [34]: 100%; kinase still bound, per cent of control [35]: 100%; kinase still bound, per cent of control [36]: 82%; kinase still bound, per cent of control [37]: 80%; kinase still bound, per cent of control [38]: 86%; kinase still bound, per cent of control [39]: 100%; kinase still bound, per cent of control [40]: 83%
